According to patent publication US8759373B2, “Cyanoisoquinoline compounds and methods of use thereof” (Fibrogen, Inc., priority 2006, dated 2014):

Test system: mouse erythropoietin
Test: Plasma erythropoietin levels in mice after IV dosing (mouse erythropoietin QUANTIKINE ELISA)
Type: in vivo, Male Swiss Webster mice
Details: blood 4 hours post IV dosing, same conditions and concentration
Experimental: Compounds were tested for activity using the following assay. Compounds were dissolved in aqueous solution containing twice as much sodium hydroxide, mole-for-mole, as compound and dextrose as tonicity agent. Male Swiss Webster mice were dosed by tail vein injection with the compound, and blood samples were collected into EDTA and heparin 4 hours post IV dosing. The samples were analyzed using a mouse erythropoietin QUANTIKINE ELISA kit (R&D Systems Inc., Minneapolis Minn.) according to the manufacturer's instructions. […] Table 1 below illustrates the fold difference (i.e., the level of improvement) between erythropoietin levels achieved by compounds of the invention compared to erythropoietin levels achieved by compounds having the same structure except the cyano group at the C-1 position is replaced as shown below, tested under the same conditions and at the same concentration.

[1] = comparator: same structure with —Cl in place of cyano at C-1, tail vein injection
[2] = comparator: same structure with —CH3 in place of cyano at C-1, tail vein injection
[3] = comparator: same structure with —H in place of cyano at C-1, tail vein injection

Row | SMILES | Fold Difference (erythropoietin levels vs. comparative compound) [1] | Fold Difference (erythropoietin levels vs. comparative compound) [2] | Fold Difference (erythropoietin levels vs. comparative compound) [3] | further results
1 | N#Cc1nc(C(=O)NCC(=O)O)c(O)c2ccccc12 [Example 1, [(1-Cyano-4-hydroxy-isoquinoline-3-carbonyl)-amino]-acetic acid] | 4.7× | – | – | –
2 | N#Cc1nc(C(=O)NCC(=O)O)c(O)c2ccc(Oc3ccccc3)cc12 [Example 3, [(1-Cyano-4-hydroxy-7-phenoxy-isoquinoline-3-carbonyl)-amino]-acetic acid] | – | 2.5× | – | –
3 | N#Cc1nc(C(=O)NCC(=O)O)c(O)c2ccc(Oc3ccc(F)cc3)cc12 [Example 6, {[1-Cyano-7-(4-fluoro-phenoxy)-4-hydroxy-isoquinoline-3-carbonyl]-amino}-acetic acid] | 31× | – | – | –
4 | N#Cc1nc(C(=O)NCC(=O)O)c(O)c2cccc(Oc3ccccc3)c12 [Example 9, [(1-Cyano-4-hydroxy-8-phenoxy-isoquinoline-3-carbonyl)-amino]-acetic acid] | – | 2.4× | – | –
5 | N#Cc1nc(C(=O)NCC(=O)O)c(O)c2cc(Oc3ccccc3)ccc12 [Example 12, [(1-Cyano-4-hydroxy-6-phenoxy-isoquinoline-3-carbonyl)-amino]-acetic acid] | 449× | – | – | Fold Difference (erythropoietin levels vs. comparative compound) (comparator: same structure with —Br in place of cyano at C-1, tail vein injection): 362×
6 | COc1cccc(Oc2cccc3c(O)c(C(=O)NCC(=O)O)nc(C#N)c23)c1 [Example 20, {[1-Cyano-4-hydroxy-8-(3-methoxy-phenoxy)-isoquinoline-3-carbonyl]-amino}-acetic acid] | – | – | 23× | –
7 | N#Cc1nc(C(=O)NCC(=O)O)c(O)c2ccc(Cc3ccccc3)cc12 [Example 22, [(7-Benzyl-1-cyano-4-hydroxy-isoquinoline-3-carbonyl)-amino]-acetic acid] | – | – | 26× | –
8 | N#Cc1nc(C(=O)NCC(=O)O)c(O)c2c(Oc3ccc(F)cc3)cccc12 [Example 23, {[1-Cyano-5-(4-fluoro-phenoxy)-4-hydroxy-isoquinoline-3-carbonyl]-amino}-acetic acid] | – | – | 277× | –
9 | Cc1nc2ccc(Oc3ccc4c(C#N)nc(C(=O)NCC(=O)O)c(O)c4c3)cc2s1 [Example 39, {[1-Cyano-4-hydroxy-6-(2-methyl-benzothiazol-6-yloxy)-isoquinoline-3-carbonyl]-amino}-acetic acid] | – | 178× | – | –
10 | CN(C)c1nc2cc(Oc3ccc4c(C#N)nc(C(=O)NCC(=O)O)c(O)c4c3)ccc2o1 [Example 40, {[1-Cyano-6-(2-dimethylamino-benzooxazol-5-yloxy)-4-hydroxy-isoquinoline-3-carbonyl]-amino}-acetic acid] | – | – | 81× | –
